# Results as given in patent publication US20100184113A1, “CONTROLLING OSTEOGENESIS BY INHIBITION OF OSTEOGENIC SUPPRESSORS” (The Scripps Research Institute Office of Patent Counsel, priority 2006, published 2010).
# Key:
# Type in all cases: cell-based, human
# hMSCs [1] = assay: Alkaline phosphatase (ALP) activity staining of hMSCs after siRNA transfection
# Protocol: The human mesenchymal stem cells (hMSCs, PT-2501) were purchased from Cambrex Inc. and cultured as instructed by the supplier. Cells were expanded to passage 5 before being used for siRNA library screen. Briefly, diluted Xtreme-siRNA transfection reagent (cat# 476 115 00, Roche) (0.12 μl Xtreme in 14 μl DMEM) was mixed with pre-spotted siRNA (14 ng/well) in each well of 384-well plates for one hour. Cells (4000/well) in 60 μl media (no antibiotics) were then added using automated dispenser (Multidrop 384, Thermo LabSystems) (siRNA final concentration at around 15 nM). Transfection was allowed to continue for 8 hours before first media renewal. After 7 days of culture, cells were stained for alkaline phosphatase (ALP) activity (cat# 86R-1 KT, Sigma). Post-screen assays were done in 96-well plates and siRNA was transfected at the concentration of 30 nM at the cell density of 8000 cells/well. CRE decoy oligonucleotide and control oligonucleotide (phosphorothioate bond modification on all nucleotides) (Park, Y. G. et al., J Biol Chem 274:1573-1580 (1999)) were transfected into cells similarly as siRNA using Xtreme-siRNA transfection reagent, except that the final DNA concentration was 90 nM. […]
# hMSCs [2] = assay: Adipogenic differentiation of hMSCs, Oil Red O staining; details: Adipo from third day after siRNA transfection, continued 12 days, Oil Red O
# Protocol: Cells were rinsed with PBS twice, fixed in 10% formalin solution for 20 minutes, rinsed with PBS twice and dH2O once, washed with propylene glycol for 5 minutes, and stained with Oil red in propylene glycol (12722A, Newcomer Supply) for 30 minutes. Cells were then washed with 85% propylene glycol for 5 minutes, rinsed with dH2O 3 times and preserved in 50% glycerol.
# 8-CPT-cAMP, Na (cat# 116812), 5-Iodotubercidin (cat# 407900), Prostaglandin E2 (PGE2, cat# 538904), SB 202190 (cat# 559388) and U0126 (cat# 662005) were purchased from Calbiochem; N6,2′-O-Dibutyryl-cAMP (cat# D0260-5MG), forskolin (cat# F6886), ascorbic acid 2-phosphate (cat# 49752-10G), (3-glycerophosphate (G-6251), dexamethasone (D8893), 3-isobutyl-1-methylxanthine (IBMX, 15879) and Insulin (19278) were purchased from Sigma/Aldrich/Fluka.
# Bone cell maturation is accompanied by extracellular matrix (ECM) mineralization (John Bilezikian et al., Principles of bone biology, Vol 1, 2nd edn: Academic Press) (2002)). To examine whether the osteogenic differentiation of hMSCs induced by the hit siRNAs can further proceed to the maturation stage, hit siRNA treated cells were cultured for 20 days. […] These observations are consistent with the conclusion that the targeted genes of the ten effective hit siRNAs not only play inhibitory roles in osteogenic specification of hMSCs, but also in bone cell maturation. […] Furthermore, in osteoporotic patients, the number of adipocytes was increased in the marrow, implying a change of cell fate disposition from osteoblast lineage to adipocyte lineage (Justesen, J. et al., Biogerontology 2:165-171 (2001); Meunier, P. et al., Clin Orthop Relat Res 80:147-154 (1971)). We therefore examined the effect of our hit siRNAs on adipogenic differentiation of hMSCs by combined treatment with an adipogenic inducing cocktail (100 μg/ml BMX, 1 μM DEX and 10 μg/ml insulin).
# Since the targeted genes are all positively involved in intracellular cAMP signaling, we tested the effect of two compounds of opposing function on cAMP production on osteogenic differentiation of hMSCs, ADK inhibitor 5-iodotubercidin and ADCY activator forskolin (Cottam, H. B. et al., J Med Chem 36:3424-3430 (1993); de Souza, N. J. et al., Med Res Rev 3:201-219 (1983)). […] ATP has been shown as a ligand for P2RY11 receptor (Communi et al., 1997). […] The present observations are consistent with the conclusion that […] in hMSCs, and vice versa.
# hMSCs [3] = assay: Alizarin red staining for calcium phosphate deposits (ECM mineralization, bone cell maturation); details: OS treatment started three days after siRNA transfection and continued for 9 days (3+9OS), vs siCon
# p38 = assay: Western blot of phosphorylated p38; details: 72 hours after transfection
# Protocol: Cell lyses buffer contains 20 mM Tris pH8.0, 1 mM EDTA, 150 mM NaCl and 0.5% NP-40, and before usage, protease inhibitor cocktail (Cat# p8340, Sigma, 1:100 dilution) and phosphatase inhibitor cocktail 2 (Cat# p5726, sigma, 1:100 dilution) were added. Proteins (60 μg/well) were separated in 12% Novex Tris-Glycine gel (Cat# EC6008 box, Invitrogen) and transferred to Nitrocellulose membrane (Cat# LC2001, Invitrogen) using the XCell II blot module system (Cat# E19051, Invitrogen). The membrane was blocked in 5% milk/PBST for 1 hour at room temperature, incubated over night at 4 degree with primary antibody, washed 3 times with PBST (0.05% Tween 20 in PBS), followed by one hour incubation with secondary antibody in 5% milk/PBST and 3 times wash with PBST at room temperature. For antibody against pCREB however, PBST was substituted with PBS in all steps except for the last one. Antibody-bound proteins were detected utilizing ECL Western blotting detection reagent (Amersham Biosciences).
# Anti-phospho-CREB was purchased from Upstate Biotechnology (cat# 06-519); Anti-phospho-p38 was purchased from Cell signaling technology (cat# 9910).
# We therefore examined the activation status of ERK1/2 and p38 in the siDUSP6 treated hMSCs along with other siRNA treated samples by western blot using antibodies against the phosphorylated form of the protein at 72 hours after transfection (FIG. 9c).
# PLZF = assay: RT-PCR of PLZF; details: samples collected day 7 or day 12 after siRNA transfection
# Protocol: Total RNA from each sample was prepared from around 5×10(4) cells using RNAeasy mini kit from Qiagen and further treated with Turbo DNA-Free (cat# 1907, Ambion) to prevent DNA contamination. Reverse transcription was carried out using SuperScript First-Strand Synthesis System for RT-PCR (cat# 11904-018, Invitrogen) or Qiagen OneStep RT-PCR kit (cat# 210210) as instructed. PCR primers used were as follows: […]
# To test their roles in our siRNA induced osteogenic differentiation, RT-PCR was performed on these genes. […] In addition, MAPK signaling pathways have been shown activated in the OS treated hMSCs, and inhibition of these pathways suppresses OS induced osteogenesis (FIG. 9b) (Jaiswal, R. K. et al., J Biol Chem 275:9645-9652 (2000)).
substance,measurement,setting,value
"CBFA1 siRNA: CBFA1-specific siRNA, antisense UAGUAGAGAUAUGGAGUGCtg, sense GCACUCCAUAUCUCUACUAtt (chain 1 UAGUAGAGAUAUGGAGUGCTG; chain 2 GCACUCCAUAUCUCUACUATT; chemistry not given here) [reference compound]",ALP activity induced by hit siRNAs or OS on co-treatment,"hMSCs [1]; co-transfected with each hit siRNA, vs co-treatment with siCon",reduced the level of ALP activity
"siCOMP: siRNA CGGUCACGGAUGACGACUA targeting cartilage oligomeric matrix protein (listed as RNA, further chemistry not given here)",osteogenic differentiation (ALP activity),hMSCs [1]; 9 days after siRNA transfection,induces osteogenic differentiation of hMSCs
same,adipogenesis induced by adipogenic inducing media (Adipo),hMSCs [2],enhances adipogenesis
"siDUSP6: siRNA CUGUGGUGUCUUGGUACAU targeting dual specificity phosphatase 6 (listed as RNA, chemistry not given here)",intensity of alizarin red staining,hMSCs [3],modest enhancement
same,level of active (phosphorylated) p38,p38,increased level of active p38
"siMJD: siRNA CAGAUGCAUCGACCAAAAC targeting Machado-Joseph disease (ataxin 3) (listed as RNA, chemistry not given here)",intensity of alizarin red staining,hMSCs [3],no significant effect
same,expression of PLZF,PLZF,detected
